Laboratory results as given in patent US20250152585A1, “PHARMACEUTICAL COMPOUND” (Duke Street Bio Limited, priority 2022, published 2025).
Like-named read-outs stand apart in the source and are kept apart here.

Tests used:
[1] = molecular target: T1, N-terminally FLAG-tagged PARP2 (amino acids 1-583) (Homo sapiens, UniProt Q9UGN5); experiment: PARP2 probe displacement HTRF assay; type: binding; conditions: binned Kd
T1 construct: N-terminally FLAG-tagged PARP2 (amino acids 1-583)
Experimental: Data analysis was performed identical as for PARP1.

[2] = molecular target: T2, full length N-terminally FLAG-tagged PARP1 (Homo sapiens, UniProt P09874); experiment: PARP1 probe displacement HTRF assay; conditions: for Selectivity: PARP1 over PARP2, ratio Kd (PARP2)/Kd (PARP1); for Kd: binned Kd
[3] = molecular target: T2, full length N-terminally FLAG-tagged PARP1; experiment: PARP1 biochemical DELFIA assay (auto-PARylation); parameters: recombinant full length human N-terminally FLAG-tagged PARP1
[4] = read-out: PARP1 HTRF, PARP1 probe displacement HTRF
[5] = binned IC50, PARP1 biochemical DELFIA assay
[6] = read-out: PARP1 HTRF, probe displacement HTRF
[7] = binned IC50, biochemical auto-PARylation assay
[8] = PARP1 HTRF, probe displacement HTRF

T1 sequence (Q9UGN5 whole entry, the tested form may be a part): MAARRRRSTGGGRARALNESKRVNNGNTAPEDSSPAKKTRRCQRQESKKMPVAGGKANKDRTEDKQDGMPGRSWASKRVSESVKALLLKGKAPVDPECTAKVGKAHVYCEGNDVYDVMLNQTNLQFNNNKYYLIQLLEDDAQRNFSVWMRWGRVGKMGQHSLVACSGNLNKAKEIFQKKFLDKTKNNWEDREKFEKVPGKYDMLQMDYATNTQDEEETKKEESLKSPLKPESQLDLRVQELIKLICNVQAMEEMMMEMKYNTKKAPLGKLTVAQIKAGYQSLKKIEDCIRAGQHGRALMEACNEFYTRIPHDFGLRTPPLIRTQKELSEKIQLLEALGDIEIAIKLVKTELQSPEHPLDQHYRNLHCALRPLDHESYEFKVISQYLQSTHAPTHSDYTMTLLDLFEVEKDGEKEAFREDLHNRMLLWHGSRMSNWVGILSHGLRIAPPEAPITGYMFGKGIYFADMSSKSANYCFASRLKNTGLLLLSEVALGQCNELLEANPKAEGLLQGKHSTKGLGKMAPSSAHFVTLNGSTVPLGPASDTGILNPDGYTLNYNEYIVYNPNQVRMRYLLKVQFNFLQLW
T2 sequence (P09874 whole entry): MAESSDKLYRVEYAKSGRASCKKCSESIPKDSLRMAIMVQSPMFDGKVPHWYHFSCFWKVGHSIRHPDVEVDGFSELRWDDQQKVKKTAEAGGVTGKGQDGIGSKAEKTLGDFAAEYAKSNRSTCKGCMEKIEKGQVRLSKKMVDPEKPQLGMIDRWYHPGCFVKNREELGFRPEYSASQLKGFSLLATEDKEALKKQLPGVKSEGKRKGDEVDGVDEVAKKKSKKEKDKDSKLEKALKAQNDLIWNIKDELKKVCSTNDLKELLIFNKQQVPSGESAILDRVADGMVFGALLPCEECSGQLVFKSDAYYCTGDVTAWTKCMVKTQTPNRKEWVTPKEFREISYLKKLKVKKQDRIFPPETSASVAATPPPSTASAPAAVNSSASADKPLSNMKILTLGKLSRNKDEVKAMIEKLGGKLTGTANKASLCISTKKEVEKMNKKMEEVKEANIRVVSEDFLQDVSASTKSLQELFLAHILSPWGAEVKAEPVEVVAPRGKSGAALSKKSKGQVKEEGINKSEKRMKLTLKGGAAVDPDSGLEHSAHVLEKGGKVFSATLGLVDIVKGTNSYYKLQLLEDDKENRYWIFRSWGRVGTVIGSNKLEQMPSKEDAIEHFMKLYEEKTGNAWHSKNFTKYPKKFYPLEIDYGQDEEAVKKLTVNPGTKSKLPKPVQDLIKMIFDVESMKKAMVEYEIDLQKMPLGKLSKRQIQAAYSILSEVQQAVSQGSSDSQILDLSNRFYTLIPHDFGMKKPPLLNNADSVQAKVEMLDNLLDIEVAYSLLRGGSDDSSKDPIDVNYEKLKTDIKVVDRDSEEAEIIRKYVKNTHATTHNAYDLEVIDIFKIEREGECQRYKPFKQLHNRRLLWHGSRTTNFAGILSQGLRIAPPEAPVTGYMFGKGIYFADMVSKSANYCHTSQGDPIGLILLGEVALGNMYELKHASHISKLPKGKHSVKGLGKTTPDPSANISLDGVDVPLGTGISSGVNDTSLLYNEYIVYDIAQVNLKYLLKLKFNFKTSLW

| SMILES | Kd ([1]; PARP2 probe displacement HTRF) [nM] | Selectivity ([2]; probe displacement HTRF) | Kd [2, 4] [nM] | IC50 [3, 5] [nM] | Kd ([1]; probe displacement HTRF) [nM] | Kd [2, 6] [nM] | IC50 [3, 7] [nM] | Kd [2, 8] [nM] | Kd ([2]; PARP1 HTRF, PARP1 probe displacement HTRF) [nM] |
| --- | --- | --- | --- | --- | --- | --- | --- | --- | --- |
| O=C(NCCF)c1ccc(N2CCC(N3CCCC(c4nc5ccccc5c(=O)[nH]4)C3)CC2)cn1 (single isomer, unassigned) [Compound 110a] | > 10000 | +++ (+++ indicate a value of at least 100) | < 10 | < 10 | – | – | – | – | – |
| CNC(=O)c1ncc(N2CCC(N3CCC(c4cc5ccc(F)cc5c(=O)[nH]4)C3)CC2)c(C)n1 (single isomer, unassigned) [Compound 265a] | – | +++ (+++ indicate a value of at least 100) | – | – | 1000 to 10000 | < 10 | < 10 | – | – |
| O=C(NCCF)c1ccc(N2CCC(N3CCC(c4nc5ccccc5c(=O)[nH]4)C3)CC2)cn1 (single isomer, unassigned) [Compound 117a] | 100 to 1000 | + (+ indicates a value of 10 to less than 50) | 10 to 100 | 10 to 100 | – | – | – | – | – |
| CNC(=O)c1ncc(N2CCC(N3CCC(c4cc5ccc(F)cc5c(=O)[nH]4)C3)CC2)cc1F (single isomer, unassigned) [Compound 395b] | – | ++ (++ indicates a value of 50 to less than 100) | – | – | 10 to 100 | < 10 | < 10 | – | – |
| CS(=O)(=O)Nc1ccc(N2CCC(N3CCC(c4nc5ccccc5c(=O)[nH]4)C3)CC2)cn1 (single isomer, unassigned) [Compound 291b] | – | − (− indicates a value of less than 10) | – | – | 1000 to 10000 | 100 to 1000 | 100 to 1000 | – | – |
| CNC(=O)c1ccc(N2CCC(N3CCC(c4cc5c(F)ccc(F)c5c(=O)[nH]4)C3)CC2)c(F)n1 (racemic) [Compound 268rac] | – | +++ (+++ indicate a value of at least 100) | – | – | 100 to 1000 | < 10 | < 10 | – | – |
| CNC(=O)c1ccc(N2CCC(N3CCC(c4cc5cccc(F)c5c(=O)[nH]4)C3)CC2)c(F)c1 (single isomer, unassigned) [Compound 371b] | – | ++ (++ indicates a value of 50 to less than 100) | – | – | 1000 to 10000 | 10 to 100 | 10 to 100 | – | – |
| CNC(=O)c1ccc(N2CCC(N3CC(c4cc5cccc(F)c5c(=O)[nH]4)C(F)(F)C3)CC2)cn1 (racemic) [Compound 393rac, 5-(4-(3,3-difluoro-4-(8-fluoro-1-oxo-1,2-dihydroisoquinolin-3-yl)pyrrolidin-1-yl)piperidin-1-yl)-N-methylpicolinamide] | – | +++ (+++ indicate a value of at least 100) | – | – | 1000 to 10000 | – | < 10 | < 10 | – |
| CNC(=O)c1ccc(N2CCC(N3CCC(c4ccc(CC5CC5)c(=O)[nH]4)C3)CC2)cn1 (single isomer, unassigned) [Compound 213b] | 100 to 1000 | +++ (+++ indicate a value of at least 100) | < 10 | < 10 | – | – | – | – | – |
| CNC(=O)c1ccc(N2CCC(N3CCC(O)(c4nc5ccccc5c(=O)[nH]4)C3)CC2)cn1 (single isomer, unassigned) [Compound 140a] | > 10000 | ++ (++ indicates a value of 50 to less than 100) | 10 to 100 | 100 to 1000 | – | – | – | – | – |
| CCc1ccc(C2CCN(C3CCN(c4ccc(C#N)cc4Cl)CC3)C2)[nH]c1=O (single isomer, unassigned) [Compound 377a] | – | +++ (+++ indicate a value of at least 100) | – | – | > 10000 | 10 to 100 | 10 to 100 | – | – |
| CCc1ccc(C2(F)CCN(C3CCN(c4ccc(C(=O)NC)nc4F)CC3)C2)[nH]c1=O (racemic) [Compound 415rac] | – | +++ (+++ indicate a value of at least 100) | – | – | > 10000 | < 10 | 10 to 100 | – | – |
| CNC(=O)c1ncc(N2CCC(N3CC4(c5nc6ccc(F)cc6c(=O)[nH]5)CC3C4)CC2)cc1F [Compound 379] | – | +++ (+++ indicate a value of at least 100) | – | – | 100 to 1000 | – | < 10 | < 10 | – |
| CNC(=O)c1ccc(OCCCN2CCC(c3nc4ccccc4c(=O)[nH]3)CC2)cn1 [Compound 2, N-methyl-5-(3-(4-(4-oxo-3,4-dihydroquinazolin-2-yl)piperidin-1-yl)propoxy)picolinamide] | 1000 to 10000 | +++ (+++ indicate a value of at least 100) | – | < 10 | – | – | – | – | < 10 |
| CNC(=O)c1ccc(N2CCC(N3CCC(c4cnc(CC(F)(F)F)c(=O)[nH]4)C3)CC2)cn1 (single isomer, unassigned) [Compound 287b] | – | − (− indicates a value of less than 10) | – | – | > 10000 | 1000 to 10000 | 1000 to 10000 | – | – |
| CC(=O)Nc1ccc(N2CCC(N3CCC(c4nc5ccccc5c(=O)[nH]4)C3)CC2)cn1 (single isomer, unassigned) [Compound 220a] | – | − (− indicates a value of less than 10) | – | – | 1000 to 10000 | 100 to 1000 | 100 to 1000 | – | – |
| CNC(=O)c1ccc(N2CC(N3CCCC(c4nc5ccccc5c(=O)[nH]4)CC3)C2)cn1 (single isomer, unassigned) [Compound 145a] | 1000 to 10000 | +++ (+++ indicate a value of at least 100) | < 10 | < 10 | – | – | – | – | – |
| CNC(=O)c1ccc(N2CCC(N3CCC(c4ncc(C(F)(F)F)c(=O)[nH]4)C3)CC2)cn1 (single isomer, unassigned) [Compound 56b] | > 10000 | − (− indicates a value of less than 10) | 100 to 1000 | 1000 to 10000 | – | – | – | – | – |
| CNC(=O)c1ccc(N2CCC(N3CCC(c4nc5c(C(F)(F)F)c[nH]c5c(=O)[nH]4)C3)CC2)cn1 (single isomer, unassigned) [Compound 293a] | – | − (− indicates a value of less than 10) | – | – | > 10000 | > 10000 | > 10000 | – | – |
| CNC(=O)c1ccc(N2CCC(N3CCCC(c4nc5ccccc5c(=O)[nH]4)C3)CC2)c(Cl)n1 (single isomer, unassigned) [Compound 94b] | > 10000 | +++ (+++ indicate a value of at least 100) | < 10 | < 10 | – | – | – | – | – |
| CCc1ccc(C2CCN(C3CCN(c4ccc(C(=O)NC)c(F)c4)CC3)C2)[nH]c1=O (racemic) [Compound 282rac] | – | + (+ indicates a value of 10 to less than 50) | – | – | 100 to 1000 | 10 to 100 | 10 to 100 | – | – |
| CNC(=O)c1ccc(OCCN2CCC(c3nc4ccccc4c(=O)[nH]3)C2)cn1 (single isomer, unassigned) [Compound 62a] | 1000 to 10000 | ++ (++ indicates a value of 50 to less than 100) | 10 to 100 | 10 to 100 | – | – | – | – | – |
| CCc1ccc(C2CCN(C3CCN(c4cnc(C(=O)NC)cc4C(F)(F)F)CC3)C2)[nH]c1=O (single isomer, unassigned) [Compound 298b] | – | +++ (+++ indicate a value of at least 100) | – | – | 1000 to 10000 | 10 to 100 | 10 to 100 | – | – |
| CNC(=O)c1cc(C)c(N2CCC(N3CCC(c4cc5ccccc5c(=O)[nH]4)C3)CC2)c(C)n1 (single isomer, unassigned) [Compound 205a] | > 10000 | + (+ indicates a value of 10 to less than 50) | 100 to 1000 | 100 to 1000 | – | – | – | – | – |
| CCNC(=O)c1ccc(N2CCC(N3CCC(c4nc5ccccc5c(=O)[nH]4)C3)CC2)cn1 (single isomer, unassigned) [Compound 111a] | 100 to 1000 | + (+ indicates a value of 10 to less than 50) | 10 to 100 | 10 to 100 | – | – | – | – | – |
